The assay has as its system BT20 Cell. The assay can be described thus: Cancer Cell Lysate Total L-Glutamate Assay. The format is cell-based. Conditions: total L-glutamate in cell lysate, BT20 cells, 2 hour incubation with test compound. The procedure, abridged:
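BT20 and other cancer lines at ~80% confluence were given fresh L-glutamine-containing medium, then treated with serially diluted compound (0.5% DMSO) for 2 hours at 37° C. Washed cells were lysed by freeze-thaw and sonication. Lysate glutamate was measured via glutamate oxidase/HRP/50 μM Amplex Red fluorescence (ex 530-560, em 585 nm); IC50 by four-parameter logistic fit.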

The values that follow come from patent US10676471B2, “Cycloalkyl-linked diheterocycle derivatives” (Pfizer Inc., priority 2014, dated 2020).

As to `Cn1ccc(CC(=O)Nc2nnc([C@H]3CC4(C[C@H](c5nnc(NC(=O)Cc6ccn(C)n6)s5)C4)C3)s2)n1` (some centres unmarked) [Example 97, N,N′-(spiro[3.3]heptane-2,6-diyldi-1,3,4-thiadiazole-5,2-diyl)bis[2-(1-methyl-1H-pyrazol-3-yl)acetamide]], the concentration for half-maximal inhibition (IC50) is 2.7 nM.
Consider `Cn1ccc(CC(=O)Nc2nnc([C@H]3CC4(C[C@H](c5nnc(NC(=O)Cc6ccn(C)n6)s5)C4)C3)s2)n1` (some centres unmarked) [Example 98, N,N′-(spiro[3.3]heptane-2,6-diyldi-1,3,4-thiadiazole-5,2-diyl)bis[2-(1-methyl-1H-pyrazol-3-yl)acetamide]], for which inhibition was half-maximal at 0.5 nM (IC50).
For the compound `CCC(=O)Nc1nnc([C@H]2CC[C@@H](Cc3ccc(NC(=O)Cc4ccccn4)nn3)C2)s1` [Example 119, N-{5-[(1S,3R)-3-({6-[(pyridin-2-ylacetyl)amino]pyridazin-3-yl}methyl)cyclopentyl]-1,3,4-thiadiazol-2-yl}propanamide], the IC50 (Homo sapiens, BT-20, 2 h) was determined as 0.2 nM.
For the compound `CC(C)C(=O)Nc1nnc([C@H]2CC[C@@H](Cc3ccc(NC(=O)Cc4ccccn4)nn3)C2)s1` [Example 120, 2-methyl-N-{5-[(1S,3R)-3-({6-[(pyridin-2-ylacetyl)amino]pyridazin-3-yl}methyl)cyclopentyl]-1,3,4-thiadiazol-2-yl}propanamide], the IC50 (Homo sapiens, BT-20, 2 h) came out at 0.4 nM.
`CCC(=O)Nc1nnc(C2CC3(C2)CC(c2nnc(NC(=O)CC)s2)C3)s1` (centres unmarked) [Example 134, N,N′-(spiro[3.3]heptane-2,6-diyldi-1,3,4-thiadiazole-5,2-diyl)dipropanamide]: the half-maximal inhibitory concentration (IC50) (Homo sapiens, BT-20, 2 h) worked out at 1.3 nM.
